From patent US7855076B2, “Use of discoidin domain receptor 1 (DDR1) and agents that affect the DDR1/collagen pathway” (The United States of America as represented by the …, priority 2002, dated 2010) come the findings set out here.

One assay has as its system GM-macrophages. As to the kind of experiment: HLA-DR expression on GM-macrophages. It is filed as cell-based, human. As to conditions: pretreatment of 5-day GM-macrophages, 30 minutes. On the procedure: The leukocyte-rich preparation was overlaid on Accu-prep in 50 ml tubes and the tubes were centrifuged at 800×g for 20 minutes at room temperature. PBMC fractions were collected, washed once with PBS at room temperature and twice with complete medium at 4° C. and resuspended in the same medium. Monocytes were further purified by using iso-osmotic Percoll gradient. At this stage, the purity of monocytes was higher than 90%. The cells (5×10^5/ml) were allowed to adhere to the surface of 6-well plates. After a 5-hour incubation at 37° C., nonadherent cells were removed and adherent cells were induced to differentiate into macrophages by incubation in the presence of GM-CSF (50 ng/ml) for 5 to 7 days to produce GM-CSF-induced macrophages (GM-macrophages). Five-day GM-macrophages were incubated for additional 2 days with GM-CSF in the presence of an agonistic anti-human DDR1 monoclonal mouse against the extracellular domain of DDR1 (IgM 513). To measure the effect of SB203580, 5-day GM-macrophages were pretreated with SB203580, for 30 minutes.

In a further assay the target is T1, DDR1a (Homo sapiens, UniProt Q08345).
T1 construct: The full-length human DDR1a or DDR1b cDNA was ligated into the EcoRI/BamHI site of the retroviral vector pLXSN; expressed in transfected cells; host or cells: THP-1 human monocytic leukemia cells, retroviral vector pLXSN, G418-selected clones
T1 sequence (Q08345 19-876 isoform Q08345-2 limits assumed): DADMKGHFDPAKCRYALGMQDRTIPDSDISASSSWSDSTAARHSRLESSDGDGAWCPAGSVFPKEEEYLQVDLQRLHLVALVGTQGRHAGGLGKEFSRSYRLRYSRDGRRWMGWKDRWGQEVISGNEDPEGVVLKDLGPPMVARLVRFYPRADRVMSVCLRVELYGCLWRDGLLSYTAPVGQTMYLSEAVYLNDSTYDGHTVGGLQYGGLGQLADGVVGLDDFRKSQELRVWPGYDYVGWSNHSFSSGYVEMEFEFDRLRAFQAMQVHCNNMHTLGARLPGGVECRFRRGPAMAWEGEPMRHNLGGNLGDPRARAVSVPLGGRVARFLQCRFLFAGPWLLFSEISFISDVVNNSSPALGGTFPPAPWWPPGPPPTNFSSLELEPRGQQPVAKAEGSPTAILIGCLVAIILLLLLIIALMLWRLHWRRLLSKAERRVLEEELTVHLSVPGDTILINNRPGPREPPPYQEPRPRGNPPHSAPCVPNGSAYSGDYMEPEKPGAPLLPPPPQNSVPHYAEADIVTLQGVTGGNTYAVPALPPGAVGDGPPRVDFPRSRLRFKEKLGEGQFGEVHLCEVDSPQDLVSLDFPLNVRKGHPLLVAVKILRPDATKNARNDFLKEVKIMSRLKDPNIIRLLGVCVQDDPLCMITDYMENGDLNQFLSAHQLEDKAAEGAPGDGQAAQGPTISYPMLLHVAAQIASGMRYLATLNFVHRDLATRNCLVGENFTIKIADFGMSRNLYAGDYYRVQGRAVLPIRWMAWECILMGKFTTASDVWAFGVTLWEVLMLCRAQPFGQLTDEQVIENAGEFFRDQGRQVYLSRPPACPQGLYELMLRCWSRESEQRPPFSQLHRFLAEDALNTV
Briefly: Autophosphorylation of DDR1a overexpressed in THP-1 cells. The assay is classed as cell-based. On the procedure: (§1) Using the retrovirus-infected cell lines, the effect of collagen type I on the phosphorylation of DDR1 proteins was tested. Two million cells in 3 ml complete medium were added onto collagen type I-coated plastic plates and incubated at 37° C. for various times. Cell lysates were prepared and immunoprecipitation was performed with the anti-DDR1 antibody. One-fourth of the immunoprecipitated samples was subjected to SDS-PAGE and Western blotting. The membranes were blotted with anti-pTyr and anti-DDR1 antibody. Low levels of constitutive autophosphorylation of both receptors were detected. The levels of autophosphorylation increased slightly at 15 minutes and peaked at 90 minutes after activation of the cells on collagen type I-coated plastic plates. The peak level was maintained for up to 240 minutes for DDR1a, which is consistent with the previously reported delayed kinetics of […] autophosphorylation in other cell types (Vogel FASEB J, (Suppl.), S77-S82, 1999). In contrast, autophosphorylation of DDR1b decreased after 90 minutes of collagen-activation.
(§2) Parental, mock, DDR1a- or DDR1b-overexpressing THP-1 cells were plated at 5×10^6/ml on uncoated tissue culture plates and stimulated with PMA (10 nM) for 24 hours, and then starved in RMPI 1640 without FCS for 10 hours. Subsequently cells were washed three times with PBS, and then incubated in the presence of 50 μg/ml collagen type I for various times.
(§3) Ten million cells were lysed on ice for 20 minutes in a buffer containing 50 mM NaCl, 20 mM Tris-HCl, 50 mM sodium fluoride, 30 mM Na4P2O7, 5 mM EGTA, 3 mM sodium orthovanadate, 1% Triton X-100, 1 mg/ml leupeptin, 1 mM PMSF, 1 mg/ml aprotinin, 1 mg/ml pepstatinA and 100 μM sodium orthovanadate treated with H2O2. […]
(§4) Eluted proteins were analyzed on 8% polyacrylamide gels by SDS-PAGE and transferred electrophoretically to nitrocellulose membranes at 150 mA for 1 hour by a semi-dry system. […] To detect phosphorylated or nonphosphorylated p38 MAP kinase or ATF-2, 20 μl of cell lysates were directly mixed with 20 μl of sample buffer and then analyzed.

The next assay deals with T2, DDR1b (Homo sapiens, UniProt Q08345).
T2 construct: one of the clones, clone 11B, contained the full-length human DDR1b cDNA; expressed in transfected cells; host or cells: THP-1 human monocytic leukemia cells, retroviral vector pLXSN, G418-selected clones
T2 sequence (Q08345 19-913): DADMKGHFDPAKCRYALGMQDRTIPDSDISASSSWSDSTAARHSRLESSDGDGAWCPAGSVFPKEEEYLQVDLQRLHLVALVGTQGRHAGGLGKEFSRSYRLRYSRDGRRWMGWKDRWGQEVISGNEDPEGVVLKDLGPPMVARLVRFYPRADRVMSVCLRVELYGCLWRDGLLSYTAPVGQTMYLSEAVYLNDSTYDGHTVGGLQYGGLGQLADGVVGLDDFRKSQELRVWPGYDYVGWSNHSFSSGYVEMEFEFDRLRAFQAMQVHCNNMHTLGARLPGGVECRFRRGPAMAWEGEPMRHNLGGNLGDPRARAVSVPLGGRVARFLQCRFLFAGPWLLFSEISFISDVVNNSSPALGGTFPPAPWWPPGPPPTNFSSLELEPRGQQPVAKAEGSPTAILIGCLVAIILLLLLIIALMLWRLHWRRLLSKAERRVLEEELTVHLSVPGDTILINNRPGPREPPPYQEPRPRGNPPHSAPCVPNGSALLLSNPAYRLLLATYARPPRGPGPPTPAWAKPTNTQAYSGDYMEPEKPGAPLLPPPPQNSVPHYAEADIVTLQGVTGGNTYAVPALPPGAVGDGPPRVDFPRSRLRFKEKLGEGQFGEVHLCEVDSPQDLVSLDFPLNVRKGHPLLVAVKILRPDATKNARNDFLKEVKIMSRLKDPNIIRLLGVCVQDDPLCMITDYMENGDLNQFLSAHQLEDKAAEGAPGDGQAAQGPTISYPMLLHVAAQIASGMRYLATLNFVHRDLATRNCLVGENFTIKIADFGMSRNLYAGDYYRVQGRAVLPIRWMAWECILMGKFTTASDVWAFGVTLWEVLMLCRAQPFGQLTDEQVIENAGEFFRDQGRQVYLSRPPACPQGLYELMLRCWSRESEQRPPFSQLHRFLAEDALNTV
As to the kind of experiment: Autophosphorylation of DDR1b overexpressed in THP-1 cells. It is filed as cell-based. On the procedure:
as §1, §2, §3, §4

The subject of the next assay is MCP-1 mRNA. As to the kind of experiment: MCP-1 mRNA expression in PMA-treated THP-1 cells by Northern blotting. It is filed as cell-based, human. On the procedure: The effect of collagen-activation on the expression of MCP-1 mRNA in PMA-treated parental, mock-transduced, DDR1a-overexpressing, and DDR1b-overexpressing THP-1 cells was measured by Northern blotting. THP-1 cells were cultured at the cell density of 5×10^6, cells/ml in the complete medium in the presence of 10 nM PMA in 6 well tissue culture plates that were either uncoated or collagen-coated. Total RNA was extracted from each culture by using TRIZOL reagent® and Northern blot analysis was performed as described (Yoshimura, J. Immunol. 150:5025, 1993). IL-1β cDNA was obtained by RT-PCR from a human monocyte cDNA library using the following primer pair: sense primer 5′-[…]-3′ (SEQ ID NO: 13) and anti-sense primer 5′-[…]-3′ (SEQ ID NO: 14). Each cDNA was labeled with [α-^32P]dCTP using Rediprime™ II random prime labeling system (Amersham Pharmacia Biotech).

The mark [1] stands for this setting: PMA-treated cells, 50 μg/ml collagen type I.
Setting [2] is: collagen type I-coated plates, cells not PMA-treated.

`C[S+]([O-])c1ccc(-c2nc(-c3ccncc3)c(-c3ccc(F)cc3)[nH]2)cc1` (stereo not drawn) [SB203580]: in the assay on GM-macrophages, the “agonistic antibody-induced increase of HLA-DR-positive cells” value is on record as “completely inhibited”.
In the case of collagen, the “time autophosphorylation first detected” value on DDR1a (setting [1]) was 90 min. The “time of peak autophosphorylation” value was 4 h on DDR1a (setting [1]), 1.5 h at DDR1a (setting [2]), 60 min on DDR1b (setting [1]) and 90 min on DDR1b (setting [2]). On DDR1b (setting [1]), this compound returned a time autophosphorylation detectable of 30 min. For the same compound, in the assay on MCP-1 mRNA (PMA-treated DDR1b-overexpressing cells on collagen-coated plates), the “level of MCP-1 mRNA expression” value was “rapidly up-regulated”. The “MCP-1 mRNA expression” value with MCP-1 mRNA (PMA-treated parental cells) was “no effect”.
